Test results taken from US20160038519A1, “ADMINISTRATION OF KARENITECIN FOR THE TREATMENT OF ADVANCED OVARIAN CANCER, INCLUDING CHEMOTHERAPY-RESISTANT AND/OR THE MUCINOUS ADENOCARCINOMA SUB-TYPES” (BioNumerik Pharmaceuticals, Inc., priority 2014, published 2016).
Like-named read-outs stand apart in the source and are kept apart here.

Key:
[1] = test system: panel of over twenty (20) human cancer cell lines; test: In vitro studies on a panel of over twenty human cancer cell lines; assay type: cell-based
[2] = Lactone stability in humans; assay type: in vivo, human
[3] = Toxicology study of single daily doses given orally and intravenously for five consecutive days; assay type: in vivo; conditions: oral and i.v. single daily doses
OMC3 Cell Line = test: SRB cytotoxicity assay, OMC3; assay type: cell-based, human; conditions: Homo sapiens
Procedure: (§1) In vitro studies were conducted in human mucinous ovarian cancer cell lines including JHOM2B, OMC3, and COV644. In one series of experiments, the dose response curves for BNP1350 (also known as Karenitecin), SN-38 (Irinotecan), and Topotecan were obtained and IC50 values were determined. In a second series of experiments, the effect of BNP7787 (2,2′-dithio-bis-ethane sulfonate; Tavocept) on BNP1350-induced cytotoxicity at selected BNP1350 concentrations was examined.
(§2) The JHOM2B and OMC3 cell lines were purchased from Riken Cell Bank (Japan). The COV644 cell line was purchased from SigmaAldrich. Cells were maintained as monolayered cultures in T-75 flasks and then seeded to microtiter plate wells for experiments. Population doubling-times for these three cell lines were long (i.e., exceeding 40 hours, and for some of the cell lines approaching 96 hours); therefore, the Applicants conducted initial pilot experiments and determined optimal seeding density to obtain A570 values in untreated controls that would fall within the linear range of the SRB assay after seven (7) total days of cell growth. JHOM2B cells were cultured in DMEM:F12 (1:1)+0.1 mM non-essential amino acids (NEAA)+10% FBS and were seeded at 6,000 cells per well. OMC3 cells were cultured in HamF12+10% FBS and were seeded at 8,000 cells per well. COV644 cells were cultured in DMEM+2 mM glutamine+10% FBS and were seeded at 6,000 cells per well.
(§3) The cells were manipulated in a Microzone laminar flow hood traditionally used for maintaining aseptic environments around automated instrumentation such as microplate robots, and the like. Cells were grown and maintained at 37° C. in a humidified atmosphere containing 5% CO2 in a water jacketed cell culture incubator (Forma Scientific). Cells were counted using a ViCell counter (Beckman-Coulter). An automated plate washer/stacker (ELx405/BioStak from BioTek Instruments) and a microplate reader (SpectraMax Plus from Molecular Devices) were used for conducting the SRB assay and determining A570 values for wells in the plates and the percentage of control values. Prior to SRB assays, cell viability was monitored by evaluation of microtiter plate wells. Dead cells detach and float while living cells remain attached to the bottom of the cell well.
(§4) SN-38 (Irinotecan; Sigma H0165, lot MKBQ4981) and Topotecan (Sigma T2705, lot 052M4728V) were purchased from SigmaAldrich. BNP1350 (lot KN-C192-135) and BNP7787 (lot 205001) were synthesized at BioNumerik Pharmaceuticals, Inc. (San Antonio, Tex.). BNP1350, SN38, and Topotecan were prepared as 2.5, 2.5, and 25 mM stocks in DMSO (ATCC, cell culture grade).
(§5) The sulforhodamine B (SRB) cytotoxicity assay was used to assess cell survival. Briefly, after the medium was decanted from individual plate wells, trichloroacetic acid (100 μL of 10.0 percent solution) was added to each well, and the plates were incubated at 4° C. for 1 hour. The plates were washed five times with water using an automated microplate washer (Model ELx405, Bio-Tek Instruments), SRB solution (100 μL of 0.4% SRB dissolved in 1.0 percent acetic acid) was added, and plates remained at room temperature for 15 minutes. The plates were then washed five times using acetic acid (1.0 percent), air dried, and bound dye was solubilized in Tris base (150 μL, 10 mM). Plates were agitated (gently) for 5 minutes and the absorbance values of the SRB dye-protein adduct at 570 nanometers (A570) were determined using an automated microtiter plate reader (SpectraMax Plus, Molecular Devices). IC50 values were extrapolated from dose response curves of the data using OriginLab Software.

JHOM2B Cell Line = test: SRB cytotoxicity assay, JHOM2B; assay type: cell-based, human; conditions: Homo sapiens
Procedure: as §1, §2, §3, §4, §5

[4] = test system: mucinous cell lines (JHOM2B, OMC3, and COV644); test: SRB assay, joint statements for the mucinous cell lines incl. effect of BNP7787 on BNP1350-induced cytotoxicity; assay type: cell-based, human; conditions: each of JHOM2B, OMC3, COV644
Procedure: as §1
as §2, with “JHOM2B cells were cultured in DMEM:F12 (1:1)+0.1 mM non-essential amino acids (NEAA)+10% FBS and were seeded at 6,000 cells per well. OMC3 cells were cultured in HamF12+10% FBS and were seeded at 8,000 cells per well. COV644 cells were cultured in DMEM+2 mM glutamine+10% FBS and were seeded at 6,000 cells per well.” left out
as §3, with “Cells were grown and maintained at 37° C. in a humidified atmosphere containing 5% CO2 in a water jacketed cell culture incubator (Forma Scientific).” left out, “Dead cells detach and float while living cells remain attached to the bottom of the cell well.” left out
The sulforhodamine B (SRB) cytotoxicity assay was used to assess cell survival. […] Plates were agitated (gently) for 5 minutes and the absorbance values of the SRB dye-protein adduct at 570 nanometers (A570) were determined using an automated microtiter plate reader (SpectraMax Plus, Molecular Devices). […]

[5] = Preclinical toxicology, oral single daily doses for five consecutive days, beagle dogs; conditions: beagle, dog, in vivo, po
beagle dogs = test: as above; conditions: oral vs i.v.
advanced ovarian cancer = test: Phase II study in advanced ovarian cancer after failed prior treatments; assay type: in vivo, human
COV644 Cell Line = test: SRB cytotoxicity assay, COV644; assay type: cell-based, human
Procedure: as §1, §2, §3, §4, §5
The 1050 values exceeded the solubility in medium for each compound—the limit of solubility in cell culture medium for the compounds were as follows: 2 micromolar for BNP1350 and SN38, and 20 micromolar for Topotecan. Cells were treated for periods of 2.5 hours or 6 hours and, in each case, the […] values were not reached. Longer treatments were not performed.

[6] = 2 hour drug exposure, average of Test 1 and Test 2, read-out: IC50, Average
[7] = 2 hour drug exposure, read-out: IC50, Test 1 (2 replicate plates)
[8] = 2 hour drug exposure, read-out: IC50, Test 2 (3 replicate plates)

CC[C@@]1(O)C(=O)OCc2c1cc1n(c2=O)Cc2c-1nc1ccccc1c2CC[Si](C)(C)C [Karenitecin, (4S)-4-ethyl-4-hydroxy-11-[2-(trimethylsilyl)ethyl]-1H-pyrano[3′:4′:6,7]indolizino[1,2-b]quinoline-3,14(4H,12H)-dione]
Antitumor potency compared with Topotecan or SN-38 [1]: significantly more potent
Lactone stability [2]: approximately 85%
Tolerability of oral doses [3]: good tolerability
IC50 (OMC3 Cell Line; [6]): 49.5 nM
IC50 (OMC3 Cell Line; [7]): 57 ± 4 nM
IC50 (OMC3 Cell Line; [8]): 42 ± 6 nM
IC50 (OMC3 Cell Line; read-out: IC50 values): 49.5 nM
IC50 (JHOM2B Cell Line; [6]): 69.5 nM
IC50 (JHOM2B Cell Line; [7]): 61 ± 4 nM
IC50 (JHOM2B Cell Line; [8]): 78 ± 9 nM
IC50 (JHOM2B Cell Line; read-out: IC50 values): 69.5 nM
Potency compared with SN38 and topotecan (dose response curves) [4]: much more potent
MTD at 5 days [5]: 0.075 mg/kg
MTD of oral relative to intravenous (i.v.) Karenitecin (beagle dogs): approximately 2 times
Time to Progression (TTP) compared with historical results reported with Topotecan (advanced ovarian cancer): prolonged
IC50 (COV644 Cell Line; Homo sapiens, 2, 5, and 6 hour drug exposures, did not reach 50% of Control, read-out: IC50, Test 1 (2 replicate plates)): > 2000 nM
IC50 (COV644 Cell Line; Homo sapiens, 2, 5, and 6 hour drug exposures, did not reach 50% of Control, read-out: IC50, Test 2 (2 to 3 replicate plates)): > 2000 nM
IC50 (COV644 Cell Line; Homo sapiens, 2, 5, and 6 hour drug exposures, read-out: IC50, Average): > 2000 nM
IC50 (COV644 Cell Line; Homo sapiens, read-out: IC50 values): > 2000 nM
